Results taken from article PMC5891627, “Binding Specificity of Two PBPs in the Yellow Peach Moth Conogethes punctiferalis (Guenée)” (Frontiers in Physiology, 2018).

Assays:
[1] = molecular target: CpunPBP5-m2 (CpunPBP5-Phe12 mutant) (Conogethes punctiferalis, UniProt A0A0M4FIS7, F37Y); experiment: Fluorescence displacement binding assay of mutants
Procedure: (§1) The fluorescence intensity was recorded on a FluoroMax-4 spectrophotometer (Horiba Scientific, USA) at room temperature using a 1 cm light path fluorimeter quartz cuvette. The fluorescent probe N-phenyl-1-naphthylamine (1-NPN) and all the tested chemicals were dissolved in HPLC purity methanol. The final concentration was prepared 1 mM. To measure the affinity of florescent ligand 1-NPN to each protein, a 2 μM solution of the protein in 50 mM Tris-HCl, pH 7.4, was titrated with aliquots of 1 mM ligand in methanol to final concentrations of 1–8 μM. The fluorescence of 1-NPN was excited at 337 nm and emission spectra were recorded between […] and 450 nm. The affinity of other ligands was measured in competitive binding assays, using 1-NPN as the fluorescent reporter at 2 μM concentration and different concentrations of each ligands. The GraphPad Prism 5 (GraphPad Software, Inc.) was used to estimate the K1−NPN (KD of complex protein /1-NPN) values by nonlinear regression for a unique site of binding. It was assumed that the proteins were 100% active, with a stoichiometry of 1:1 (protein:ligand) at saturation. For other competitor ligands, the dissociation constants were calculated from the corresponding IC50 (concentrations of ligands halving the initial fluorescence value of 1-NPN) values using Microsoft Office Excel 2010, with the formula: KD = [IC50]/(1+[1-NPN]/K1−NPN). In the equation, [1-NPN] is the free concentration of 1-NPN, and K1−NPN is the dissociation constant of the complex protein /1-NPN.
(§2) Four mutants of CpunPBP2 and four mutants of CpunPBP5 were developed using the QuikChange Lightning Site-Directed Mutagenesis Kit (Stratagene, USA). The mutational primers were designed manually. Mutation sites are underlined in Table S2. The CpunPBP2/pGEM-T Easy construct was used as a template. The PCR conditions were 95°C for 5 min, followed by 30 cycles of 95°C for 30 s, 58°C for 30 s and 68°C for 1 min, and final extension at 72°C for 10 min. The correct insertion of mutation was subcloned into pGEM-T Easy vector (TransGen, Beijing, China). The expression system and fluorescence binding assay were conducted as mentioned for wild type proteins.
(§3) Supplementary file Image3.jpg: Figure S3 SDS-PAGE analyses of purified CpunPBP2 and CpunPBP5 with their mutants. M: marker protein. (A)1:CpunPBP2 original protein. (A)2: CpunPBP2-Phe9 mutant (CpunPBP2-m1). (A)3: CpunPBP2-Phe33 mutant (CpunPBP2-m2). (A)4: CpunPBP2-Ser53 mutant (CpunPBP2-m3). (A)5: CpunPBP2-Phe115 mutant (CpunPBP2-m4). (B)1:CpunPBP5 original protein. (B)2: CpunPBP5-Ser9 mutant (CpunPBP5-m1). (B)3: CpunPBP5-Phe12 mutant (CpunPBP5-m2). (B)4: CpunPBP5-Val115 mutant (CpunPBP5-m3). (B)5: CpunPBP5-Arg120 mutant (CpunPBP5-m4). Click here for additional data file.

[2] = molecular target: CpunPBP5-m3 (CpunPBP5-Val115 mutant) (Conogethes punctiferalis, UniProt A0A0M4FIS7, V140A); experiment: Fluorescence displacement binding assay of mutants
Sequence of CpunPBP5-m3 (CpunPBP5-Val115 mutant) (A0A0M4FIS7 entry or part of it V140A): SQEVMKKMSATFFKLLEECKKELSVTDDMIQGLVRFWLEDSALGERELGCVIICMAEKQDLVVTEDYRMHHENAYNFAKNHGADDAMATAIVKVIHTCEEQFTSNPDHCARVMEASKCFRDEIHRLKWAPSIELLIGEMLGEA
Procedure: as §1, §2, §3

[3] = molecular target: CpunPBP2-m1 (CpunPBP2-Phe9 mutant) (Conogethes punctiferalis, UniProt A0A1D6X8W8, F33Y); experiment: Fluorescence displacement binding assay of mutants; details: for Kd: read-out: KD, calculated dissociation constant
Sequence of CpunPBP2-m1 (CpunPBP2-Phe9 mutant) (A0A1D6X8W8 entry or part of it F33Y): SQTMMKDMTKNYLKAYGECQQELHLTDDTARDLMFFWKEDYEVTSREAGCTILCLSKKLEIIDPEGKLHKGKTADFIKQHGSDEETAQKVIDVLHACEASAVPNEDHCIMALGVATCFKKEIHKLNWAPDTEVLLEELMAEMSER
Procedure: as §1, §2, §3

[4] = molecular target: CpunPBP5-m1 (CpunPBP5-Ser9 mutant) (Conogethes punctiferalis, UniProt A0A0M4FIS7, S34T); experiment: Fluorescence displacement binding assay of mutants
Sequence of CpunPBP5-m1 (CpunPBP5-Ser9 mutant) (A0A0M4FIS7 entry or part of it S34T): as the sequence (A0A0M4FIS7 entry or part of it V140A) above, with S9T, A115V counted along it
Procedure: as §1, §2, §3

[5] = molecular target: CpunPBP2-m3 (CpunPBP2-Ser53 mutant) (Conogethes punctiferalis, UniProt A0A1D6X8W8, S77Y); experiment: Fluorescence displacement binding assay of mutants; details: for Kd: read-out: KD, calculated dissociation constant
Sequence of CpunPBP2-m3 (CpunPBP2-Ser53 mutant) (A0A1D6X8W8 entry or part of it S77Y): as the sequence (A0A1D6X8W8 entry or part of it F33Y) above, with Y12F, S56Y counted along it
Procedure: as §1, §2, §3

[6] = molecular target: CpunPBP5-m4 (CpunPBP5-Arg120 mutant) (Conogethes punctiferalis, UniProt A0A0M4FIS7, R145K); experiment: Fluorescence displacement binding assay of mutants
Sequence of CpunPBP5-m4 (CpunPBP5-Arg120 mutant) (A0A0M4FIS7 entry or part of it R145K): as the sequence (A0A0M4FIS7 entry or part of it V140A) above, with A115V, R120K counted along it
Procedure: as §1, §2, §3

[7] = molecular target: CpunPBP2-m4 (CpunPBP2-Phe115 mutant) (Conogethes punctiferalis, UniProt A0A1D6X8W8, F139Y); experiment: Fluorescence displacement binding assay of mutants; details: for Kd: read-out: KD, calculated dissociation constant
Sequence of CpunPBP2-m4 (CpunPBP2-Phe115 mutant) (A0A1D6X8W8 entry or part of it F139Y): as the sequence (A0A1D6X8W8 entry or part of it F33Y) above, with Y12F, F118Y counted along it
Procedure: as §1, §2, §3

[8] = molecular target: CpunPBP2-m2 (CpunPBP2-Phe33 mutant) (Conogethes punctiferalis, UniProt A0A1D6X8W8, F57Y); experiment: Fluorescence displacement binding assay of mutants; details: for Kd: read-out: KD, calculated dissociation constant
Sequence of CpunPBP2-m2 (CpunPBP2-Phe33 mutant) (A0A1D6X8W8 entry or part of it F57Y): as the sequence (A0A1D6X8W8 entry or part of it F33Y) above, with Y12F, F36Y counted along it
Procedure: as §1, §2, §3

[9] = molecular target: CpunPBP2 (Conogethes punctiferalis, UniProt A0A1D6X8W8); experiment: Fluorescence displacement (competitive, 1-NPN) binding assay; details: for IC50 / Kd / activity at 6000 µM: pH = 7.4; for IC50: 1-NPN 2 μM as fluorescent reporter, 2 μM protein, read-out: IC50; for Kd: calculated from IC50: KD = [IC50]/(1+[1-NPN]/K1-NPN), read-out: KD (μM), calculated dissociation constant; for binding affinity to CpunPBP2 (in words): ranking among the 24 tested ligands; for activity at 6000 µM: ratio of fluorescence intensity at the pheromone concentration of 6 mM to the initial fluorescence intensity, read-out: Int (%)
Sequence of CpunPBP2 (A0A1D6X8W8 entry or part of it): as the sequence (A0A1D6X8W8 entry or part of it F33Y) above, with Y12F counted along it
Procedure: (§4) The fluorescence intensity was recorded on a FluoroMax-4 spectrophotometer (Horiba Scientific, USA) at room temperature using a 1 cm light path fluorimeter quartz cuvette. The fluorescent probe N-phenyl-1-naphthylamine (1-NPN) and all the tested chemicals were dissolved in HPLC purity methanol. The final concentration was prepared 1 mM. […] The fluorescence of 1-NPN was excited at 337 nm and emission spectra were recorded between […]. […] The GraphPad Prism 5 (GraphPad Software, Inc.) was used to estimate the K1−NPN (KD of complex protein /1-NPN) values by nonlinear regression for a unique site of binding. It was assumed that the proteins were 100% active, with a stoichiometry of 1:1 (protein:ligand) at saturation. […] In the equation, [1-NPN] is the free concentration of 1-NPN, and K1−NPN is the dissociation constant of the complex protein /1-NPN.

[10] = molecular target: CpunPBP5 (Conogethes punctiferalis, UniProt A0A0M4FIS7); experiment: as above; details: for IC50 / Kd / activity at 6000 µM: pH = 7.4; for IC50: 1-NPN 2 μM as fluorescent reporter, 2 μM protein, read-out: IC50; for Kd: calculated from IC50: KD = [IC50]/(1+[1-NPN]/K1-NPN), read-out: KD (μM), calculated dissociation constant; for binding affinity to CpunPBP5 (in words): ranking among the 24 tested ligands; for activity at 6000 µM: ratio of fluorescence intensity at the pheromone concentration of 6 mM to the initial fluorescence intensity, read-out: Int (%)
Sequence of CpunPBP5 (A0A0M4FIS7 entry or part of it): as the sequence (A0A0M4FIS7 entry or part of it V140A) above, with A115V counted along it
Procedure: as §4

[11] = system: yellow peach moth males; set-up: method as in Liu et al., [1994]; details: ref Liu et al., [1994]; cited from earlier work

Sequence of CpunPBP5-m2 (CpunPBP5-Phe12 mutant) (A0A0M4FIS7 entry or part of it F37Y): as the sequence (A0A0M4FIS7 entry or part of it V140A) above, with F12Y, A115V counted along it

Row | Compound | IC50 [1] [µM] | Kd [1] [µM] | IC50 [2] [µM] | Kd [2] [µM] | IC50 [3] [µM] | Kd [3] [µM] | IC50 [4] [µM] | Kd [4] [µM] | IC50 [5] [µM] | Kd [5] [µM] | IC50 [6] [µM] | Kd [6] [µM] | IC50 [7] [µM] | Kd [7] [µM] | IC50 [9] [µM] | Kd [9] [µM] | activity at 6000 µM [9] [%] | IC50 [10] [µM] | Kd [10] [µM] | activity at 6000 µM [10] [%] | further results
1 | CCCCC/C=C/CCCCCCCCC=O [E10-16:Ald, (E)-10-hexadecenal] | 2.73 ± 0.33 | 1.49 ± 0.18 | 3.64 ± 0.1 | 1.85 ± 0.16 | 0.8 ± 0.02 | 0.22 ± 0.01 | 1.63 ± 0.01 | 0.72 | 1.04 ± 0.13 | 0.11 ± 0.01 | 2.61 ± 0.78 | 1.06 ± 0.32 | 30 ± 17.6 | 19.9 ± 11.7 | 0.94 ± 0.03 | 0.4 ± 0.01 | 39.5 ± 0.83 | 1.33 ± 0.06 | 0.6 ± 0.02 | 40 ± 1.53 | binding affinity of mutant compared with CpunPBP5 (in words) ([2]; mutant CpunPBP5-m3 vs wild type): decreased the most; IC50 [8]: 1.18 ± 0.2 µM; Kd [8]: 0.54 ± 0.09 µM; binding affinity to CpunPBP2 (in words) [9]: highest binding ability; binding affinity to CpunPBP5 (in words) [10]: highest binding ability
2 | CCCCC/C=C\CCCCCCCCC=O [Z10-16:Ald, (Z)-10-hexadecenal] | 1.66 ± 0.03 | 0.9 ± 0.02 | 1.62 ± 0.04 | 0.82 ± 0.02 | 0.76 ± 0.01 | 0.21 | 1.41 ± 0.02 | 0.72 ± 0.01 | 0.92 ± 0.05 | 0.1 | 2.57 ± 0.55 | 1.04 ± 0.22 | 15.4 ± 3.18 | 10.2 ± 2.11 | 0.98 ± 0.09 | 0.42 ± 0.04 | 42.5 ± 1.88 | 0.97 ± 0.02 | 0.36 ± 0.01 | 40.6 ± 1.39 | attraction of males in field trials [11]: do not attract males; binding capacity of mutant compared with CpunPBP5 (in words) ([6]; mutant CpunPBP5-m4 vs wild type): decreased considerably; IC50 [8]: 0.79 ± 0.03 µM; Kd [8]: 0.36 ± 0.01 µM; binding affinity to CpunPBP2 (in words) [9]: highest binding ability; binding affinity to CpunPBP5 (in words) [10]: highest binding ability
3 | CCCCCCCCCCCCCCCC=O [Hexadecanal] | – | – | – | – | – | – | – | – | – | – | – | – | – | – | 1.84 ± 0.02 | 1.07 ± 0.01 | 34.03 ± 0.34 | 4.51 ± 0.08 | 3.65 ± 0.07 | 46.83 ± 0.18 | attraction of males in field trials [11]: do not attract males
